In PubChem BioAssay (NCI):
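Exposure lasted 48 hours, with cells grown in 96-well plates and compounds tested at five concentrations. TGI denotes the concentration required for complete inhibition of growth.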

Assays:
Assay in all cases: DTP human tumour cell line panel, 48 h
NCI-H522 lung = system: NCI-H522 lung
NCI/ADR-RES ovarian = system: NCI/ADR-RES ovarian
ACHN renal = system: ACHN renal
SNB-75 CNS = system: SNB-75 CNS
CAKI-1 renal = system: CAKI-1 renal
IGROV1 ovarian = system: IGROV1 ovarian
786-0 renal = system: 786-0 renal
HCC-2998 colon = system: HCC-2998 colon
MDA-MB-231 breast = system: MDA-MB-231 breast
RPMI-8226 leukemia = system: RPMI-8226 leukemia
CCRF-CEM leukemia = system: CCRF-CEM leukemia

| SMILES | TGI (NCI-H522 lung) [µM] | TGI (NCI/ADR-RES ovarian) [µM] | TGI (ACHN renal) [µM] | TGI (SNB-75 CNS) [µM] | TGI (CAKI-1 renal) [µM] | TGI (IGROV1 ovarian) [µM] | TGI (786-0 renal) [µM] | TGI (HCC-2998 colon) [µM] | TGI (MDA-MB-231 breast) [µM] | TGI (RPMI-8226 leukemia) [µM] | TGI (CCRF-CEM leukemia) [µM] |
| --- | --- | --- | --- | --- | --- | --- | --- | --- | --- | --- | --- |
| Cc1ccsc1C(=S)Nc1ccc(Cl)c(C(=O)OC(C(C)C)C(C)C)c1 | 81.8 | > 100 | > 100 | 95.3 | 59.8 | > 100 | > 100 | > 100 | 71.3 | 45.1 | > 100 |
| COc1cc2c(cc1O)CC[n+]1cc3c(OC)c(OC)ccc3cc1-2 | > 100 | > 100 | > 100 | > 100 | > 100 | > 100 | > 100 | > 100 | > 100 | > 100 | > 100 |
| O=C(/C=C1\C[C@H]2C=Nc3ccccc3C(=O)N2C1)NCCCCCNC(=O)/C=C1\C[C@H]2C=Nc3ccccc3C(=O)N2C1 | 2.51 | 55.9 | 3.88 | 28.4 | 6.38 | 23.1 | 3.42 | 32.7 | 30.4 | > 72.7 | 12.7 |
| Cc1cc(C)nc(NS(=O)(=O)c2ccc(Nc3c4ccccc4nc4c(C(=O)NCCO)cccc34)cc2)n1 | 30 | > 100 | > 100 | 21.6 | 52.7 | > 100 |  | 27.8 | 27.4 | 36.5 | 50.9 |
| O=C(NCCCNCCCCNCCCNC(=O)C(F)(F)F)C(F)(F)F | > 100 | > 100 | > 100 | > 100 | 40.4 | > 100 | > 100 | > 100 | > 100 | > 100 | > 100 |
| CCN(C(=O)N[C@H](C(=O)N[C@@H](C)C(=O)OC)C(C)C)c1ccccc1 | 49.5 | > 100 | > 100 | > 100 | > 100 | > 100 | 92.4 | 33 | > 100 | > 100 | > 100 |
| CCOP(=O)(OCC)c1cc(-c2ccccc2)ccc1N | > 100 | > 100 | > 100 | > 100 | > 100 | > 100 | > 100 | > 100 | > 100 | > 100 | > 100 |
| CC[P+](C#Cc1ccccc1)(c1ccccc1)c1ccccc1 | 3.32 | > 100 | 13 | 5.31 | 32.8 | 11.9 | 4.36 | 4.46 | 9.41 | 0.781 | 1.69 |
| O=c1oc2ccccc2c2nc3ccccc3cc12 | > 100 | > 100 | > 100 |  | > 100 | > 100 | 80.4 | > 100 | > 100 | > 100 | > 100 |
| COn1cc(CO)c2ccccc21 | 72.9 | > 100 | > 100 | > 100 | > 54.8 | > 100 | > 100 | > 100 | > 100 | > 100 | > 100 |
| C=C1CC=CC(C)(C)C1C/C=C(\C)C(O)CBr (stereo not drawn) | 23.2 | 63.2 | > 100 |  | 54.1 | > 100 | > 100 | > 100 | > 100 | 66.8 | > 100 |
| C/C(=N\Nc1nc2ccccc2s1)c1cccnn1 | 17.7 | 8.69 | 17 | 30.7 | > 100 | 15.5 | > 100 | 89.9 | 36.2 | > 100 |  |
| COc1ccc(N2C(=O)C3c4[nH]c5ccccc5c4C4C(C)CCCC4C3C2=O)cc1 (stereo not drawn) | > 56.3 | > 100 | > 100 | > 77 | > 100 | > 100 | > 63.5 | > 100 | 98.8 | > 100 | > 100 |
| O=C(O)c1cc2ccccc2c(S(=O)(=O)O)c1O | > 100 | > 100 | > 100 | > 100 | > 100 | > 100 | > 100 | > 100 | > 100 | > 100 | > 100 |
| CC(C)(C)OC(=O)c1ccc(NCc2cc(O)ccc2O)cc1 | 0.557 | 12.5 | 3.46 | 18.4 | 2.61 | 5.47 | 5.38 | 22.1 | 9.31 | 13 | 3.9 |
| COC(=O)c1sc2ncc3c(c2c1N)CC(C)CC3 (stereo not drawn) | > 100 | > 100 | > 100 | > 100 | > 100 | > 100 | > 100 | > 100 | > 100 | > 100 | > 100 |
| CC1OC(n2cc(F)c(=O)[nH]c2=O)C(O[Si](C)(C)C(C)(C)C)C1O[Si](C)(C)C(C)(C)C (stereo not drawn) | 16.8 | 27.7 | 26.9 | 31.3 | 28.9 | 27.3 | 27.7 | 28.2 | 31.6 | 35.4 | > 100 |
| COC1OC2COC(C)(C)OC2C2OC(C)(C)OC12 (stereo not drawn) | > 100 | > 100 | > 100 |  | 33.1 | > 100 | 52 | > 100 | > 100 | 93.6 | 48.8 |
